Results: patent US10927075B2, “Compositions and methods relating to the treatment of cancer, autoimmune disease, and neurodegenerative disease” (THE JACKSON LABORATORY, priority 2014, dated 2021)

What was measured:
[1] = tested on: non-Hodgkin's lymphoma model; assay: Non-Hodgkin's lymphoma model; conditions: in vivo
Protocol: (§1) The effects of C-1523 have been tested in vitro in cultured cancer cells and in vivo with human cell samples. Preclinical pharmacokinetic analyses were conducted to determine the fate of the compound as it is administered.

[2] = Plasma concentration after administration of 2, 10, or 20 milligrams per kilogram; type: in vivo, Sprague Dawley rats; conditions: Sprague Dawley, rat, 20 mg/kg dosing
Protocol: Pharmacokinetic measurements of DIDS, C-1523, and C-1523-1a following oral and intravenous administration to Sprague Dawly rats were made (FIGS. 4-6) and the plasma concentration of C-1523-1a at t=15 min, t=30 min, t=1 hr, t=2 hr, t=8 hr, and t=24 hr following administration of 2, 10, or 20 milligrams per kilogram to Sprague Dawley rats was determined (FIG. 7).
as §1

primary B-cells (AID+) = assay: Dose response in primary B-cells (AID+); type: cell-based; conditions: FIG. 10
Protocol: Dose responses for C-1523 (blue) and C-1523-1a (red) in primary B-cells (AID+) was determined (FIG. 10).

[3] = tested on: Primary splenic B-cells from AID-expressing mice; assay: Cell viability of primary splenic B-cells, AID-expressing versus AID-negative mice; type: cell-based; conditions: compared to primary splenic B-cells in AID-negative mice
Text: Primary splenic B-cells from AID-expressing mice were exposed to C-1523-1a and the BTK inhibitor ibrutinib and cell viability was compared to primary splenic B-cells in AID-negative mice (FIG. 9).

[4] = Pharmacokinetics after single intravenous injection or oral gavage; type: in vivo, Sprague Dawley rats
Protocol: C-1523-1A was formulated in PBS with 5% DMSO and given via single intravenous injection (1 milligram per kilogram) or by oral gavage to Sprague Dawley rats (2 milligrams per kilogram). Plasma concentrations were measure by mass spectrometry at t=15 min, t=30 min, t=1 hr, t=2 hr, t=4 hr, and t=8 hr for the intravenous cohort and at t=1 hr, t-2 hr, t-3 hr, t-4 hr, t-5 hr, t-6 hr. […] Oral availability is 2-3% (FIG. 3).

[5] = tested on: AID-expressing mouse B-lymphocytes
[6] = tested on: primary splenic B-cells from WT (AID-expressing) mice; conditions: Ishida et al., 2009; Lamont et al., 2013; cited from earlier work
[7] = tested on: Primary mouse B cells (WT); assay: Micronuclei assay; type: cell-based; conditions: all genotypes tested (WT, AID−/−, and p53−/−), 5 μg/mL, 3 d
MEC-1 cells = assay: Micronuclei assay; type: cell-based, human; conditions: cyclophosphamide treatment
[8] = tested on: Primary AID-expressing B-cells; assay: Cell survival analysis; type: cell-based; conditions: 100 nM versus vehicle (DMSO)
Protocol: FIG. 27 depicts a graph of cell survival analysis of primary AID-expressing B-cells treated with C-1523-1AD4 (100 nM) versus vehicle (DMSO).
Primary AID-expressing B-cells were sensitive to C-1523-1AD4 (FIG. 27).

Compound: CC(=O)Nc1ccc(/C=C/c2ccc(NC(=S)NC(C)C)cc2S(N)(=O)=O)c(S(N)(=O)=O)c1 [C-1523-1a, (E)-N-(4-(4-(3-isopropylthioureido)-2-sulfamoylstyryl)-3-sulfamoylphenyl)acetamide]
- tumors [1]: successfully reduced tumors
- acute toxicity (in vivo): almost no acute toxicity
- tolerance to prolonged drug exposure (single and multiple dose): excellent tolerance
- half-life [2]: ~6 h
- concentration below which response is consistent (primary B-cells (AID+)): below 10 nM
- potency and selectivity for AID+ cells (cell viability) [3]: surprisingly potent and selective for AID+ cells
- AUC ([4]; Sprague Dawley, rat, plasma, single intravenous injection 1 milligram per kilogram): 971 ng·h/mL
- half-life ([4]; Sprague Dawley, rat, plasma, single intravenous injection 1 milligram per kilogram, PBS with 5% DMSO): 1.5 h
- Vd ([4]; Sprague Dawley, rat, plasma, single intravenous injection 1 milligram per kilogram, read-out: Vss): 0.29 L/kg
- Oral availability ([4]; oral gavage 2 milligrams per kilogram): 2-3%

Compound: O=S(=O)(O)c1cc(N=C=S)ccc1C=Cc1ccc(N=C=S)cc1S(=O)(=O)O [DIDS, 4,4′-diisothiocyanatostilbene-2,2′-disulfonic acid, reference compound]
- concentration eliciting AID-specific cytotoxicity [5]: 150 µM
- cell death [6]: induces cell death in primary B-lymphocytes

Compound: O=P1(N(CCCl)CCCl)NCCCO1 (stereo not drawn) [cyclophosphamide, reference compound]
- micronuclei [7]: approximately 9%
- micronuclei relative to primary cells (MEC-1 cells): approximately half as much micronuclei as primary cells

Compound: disodium (E)-((5- acetamido-2-(2-(N- isobutyrylsulfamoyl)-4- (3-isopropylthioureido) styryl)phenyl)sulfonyl) (isobutyryl)amide [C-1523-1AD4]
- sensitivity (cell survival) [8]: sensitive
